Measurements from ChEMBL document CHEMBL5291721, “A preclinical secondary pharmacology resource illuminates target-adverse drug reaction associations of marketed drugs” (Nat Commun, 2023).

Key:
Adenosine receptor A3 = biological target: T1, Adenosine receptor A3 (Homo sapiens, UniProt P0DMS8)
T1 sequence (P0DMS8 whole entry): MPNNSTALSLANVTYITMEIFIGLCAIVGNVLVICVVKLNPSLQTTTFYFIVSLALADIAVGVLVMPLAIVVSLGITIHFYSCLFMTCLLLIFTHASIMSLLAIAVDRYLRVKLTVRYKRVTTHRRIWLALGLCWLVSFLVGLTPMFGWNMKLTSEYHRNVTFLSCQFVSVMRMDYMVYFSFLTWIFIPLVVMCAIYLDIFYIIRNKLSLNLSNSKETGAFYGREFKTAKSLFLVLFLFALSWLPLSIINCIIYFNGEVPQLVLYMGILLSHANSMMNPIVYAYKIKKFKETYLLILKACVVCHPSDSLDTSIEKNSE

Thromboxane A2 receptor [1] = biological target: T2, Thromboxane A2 receptor (Homo sapiens, UniProt P21731); type: functional, cell-based
T2 sequence (P21731 whole entry): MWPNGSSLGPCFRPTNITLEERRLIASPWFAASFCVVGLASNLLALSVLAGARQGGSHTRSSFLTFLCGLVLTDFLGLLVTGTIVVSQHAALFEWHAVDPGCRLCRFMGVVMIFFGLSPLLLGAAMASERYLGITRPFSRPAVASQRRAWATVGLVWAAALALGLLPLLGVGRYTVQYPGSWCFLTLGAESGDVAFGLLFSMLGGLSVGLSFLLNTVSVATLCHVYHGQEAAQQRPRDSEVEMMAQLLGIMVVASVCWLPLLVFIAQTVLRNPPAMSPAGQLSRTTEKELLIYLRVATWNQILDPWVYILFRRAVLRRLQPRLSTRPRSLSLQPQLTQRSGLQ

Thromboxane A2 receptor [2] = biological target: T2, Thromboxane A2 receptor; type: functional, cell-based; remark: listed apart in the source
[3] = biological target: T3, Muscarinic acetylcholine receptor M2 (Homo sapiens, UniProt P08172)
T3 sequence (P08172 whole entry): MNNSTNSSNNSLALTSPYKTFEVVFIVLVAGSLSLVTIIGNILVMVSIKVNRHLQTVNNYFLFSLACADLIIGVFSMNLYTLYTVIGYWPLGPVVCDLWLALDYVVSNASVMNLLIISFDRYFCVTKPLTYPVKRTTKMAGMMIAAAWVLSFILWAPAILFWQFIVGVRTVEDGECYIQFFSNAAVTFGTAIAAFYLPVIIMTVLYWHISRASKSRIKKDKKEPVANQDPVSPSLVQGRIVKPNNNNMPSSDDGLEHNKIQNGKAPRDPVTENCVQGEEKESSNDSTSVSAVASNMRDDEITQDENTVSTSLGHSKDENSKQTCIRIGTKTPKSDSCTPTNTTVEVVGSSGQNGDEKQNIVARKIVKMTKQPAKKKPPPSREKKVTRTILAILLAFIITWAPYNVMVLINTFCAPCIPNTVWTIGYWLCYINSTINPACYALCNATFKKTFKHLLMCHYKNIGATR

[4] = biological target: T4, 5-hydroxytryptamine receptor 1A (Homo sapiens, UniProt P08908)
T4 sequence (P08908 whole entry): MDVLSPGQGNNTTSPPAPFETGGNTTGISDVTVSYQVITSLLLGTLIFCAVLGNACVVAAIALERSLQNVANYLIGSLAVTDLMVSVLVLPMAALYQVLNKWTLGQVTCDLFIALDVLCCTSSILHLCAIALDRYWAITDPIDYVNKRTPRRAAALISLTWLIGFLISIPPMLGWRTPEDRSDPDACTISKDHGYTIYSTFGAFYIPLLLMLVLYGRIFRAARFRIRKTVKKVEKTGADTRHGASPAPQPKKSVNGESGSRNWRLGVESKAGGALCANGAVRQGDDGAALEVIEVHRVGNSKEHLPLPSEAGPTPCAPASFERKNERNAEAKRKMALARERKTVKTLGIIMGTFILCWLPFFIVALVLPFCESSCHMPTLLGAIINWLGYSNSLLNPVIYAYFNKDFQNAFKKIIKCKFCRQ

[5] = biological target: Sodium-dependent noradrenaline transporter (Homo sapiens, UniProt P23975)
Sequence of Sodium-dependent noradrenaline transporter (P23975 whole entry): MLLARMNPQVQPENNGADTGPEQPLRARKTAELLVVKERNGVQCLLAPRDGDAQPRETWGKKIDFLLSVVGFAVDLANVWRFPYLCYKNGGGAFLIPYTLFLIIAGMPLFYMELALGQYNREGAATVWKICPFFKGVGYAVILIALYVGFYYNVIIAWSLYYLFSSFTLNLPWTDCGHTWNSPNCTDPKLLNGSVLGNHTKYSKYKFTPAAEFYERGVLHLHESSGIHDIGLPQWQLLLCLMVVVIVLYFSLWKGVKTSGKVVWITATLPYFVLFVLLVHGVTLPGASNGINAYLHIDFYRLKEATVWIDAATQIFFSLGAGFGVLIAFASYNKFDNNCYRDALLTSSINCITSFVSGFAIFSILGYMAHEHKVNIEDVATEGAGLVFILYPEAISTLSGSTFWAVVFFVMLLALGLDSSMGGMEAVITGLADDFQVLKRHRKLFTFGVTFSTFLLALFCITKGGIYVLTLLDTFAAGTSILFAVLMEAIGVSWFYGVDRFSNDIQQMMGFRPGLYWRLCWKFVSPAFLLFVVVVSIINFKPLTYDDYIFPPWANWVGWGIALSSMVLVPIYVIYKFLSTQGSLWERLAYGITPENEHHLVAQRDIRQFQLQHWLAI

[6] = biological target: Vascular endothelial growth factor receptor 2 (Homo sapiens, UniProt P35968); type: functional
Sequence of Vascular endothelial growth factor receptor 2 (P35968 whole entry): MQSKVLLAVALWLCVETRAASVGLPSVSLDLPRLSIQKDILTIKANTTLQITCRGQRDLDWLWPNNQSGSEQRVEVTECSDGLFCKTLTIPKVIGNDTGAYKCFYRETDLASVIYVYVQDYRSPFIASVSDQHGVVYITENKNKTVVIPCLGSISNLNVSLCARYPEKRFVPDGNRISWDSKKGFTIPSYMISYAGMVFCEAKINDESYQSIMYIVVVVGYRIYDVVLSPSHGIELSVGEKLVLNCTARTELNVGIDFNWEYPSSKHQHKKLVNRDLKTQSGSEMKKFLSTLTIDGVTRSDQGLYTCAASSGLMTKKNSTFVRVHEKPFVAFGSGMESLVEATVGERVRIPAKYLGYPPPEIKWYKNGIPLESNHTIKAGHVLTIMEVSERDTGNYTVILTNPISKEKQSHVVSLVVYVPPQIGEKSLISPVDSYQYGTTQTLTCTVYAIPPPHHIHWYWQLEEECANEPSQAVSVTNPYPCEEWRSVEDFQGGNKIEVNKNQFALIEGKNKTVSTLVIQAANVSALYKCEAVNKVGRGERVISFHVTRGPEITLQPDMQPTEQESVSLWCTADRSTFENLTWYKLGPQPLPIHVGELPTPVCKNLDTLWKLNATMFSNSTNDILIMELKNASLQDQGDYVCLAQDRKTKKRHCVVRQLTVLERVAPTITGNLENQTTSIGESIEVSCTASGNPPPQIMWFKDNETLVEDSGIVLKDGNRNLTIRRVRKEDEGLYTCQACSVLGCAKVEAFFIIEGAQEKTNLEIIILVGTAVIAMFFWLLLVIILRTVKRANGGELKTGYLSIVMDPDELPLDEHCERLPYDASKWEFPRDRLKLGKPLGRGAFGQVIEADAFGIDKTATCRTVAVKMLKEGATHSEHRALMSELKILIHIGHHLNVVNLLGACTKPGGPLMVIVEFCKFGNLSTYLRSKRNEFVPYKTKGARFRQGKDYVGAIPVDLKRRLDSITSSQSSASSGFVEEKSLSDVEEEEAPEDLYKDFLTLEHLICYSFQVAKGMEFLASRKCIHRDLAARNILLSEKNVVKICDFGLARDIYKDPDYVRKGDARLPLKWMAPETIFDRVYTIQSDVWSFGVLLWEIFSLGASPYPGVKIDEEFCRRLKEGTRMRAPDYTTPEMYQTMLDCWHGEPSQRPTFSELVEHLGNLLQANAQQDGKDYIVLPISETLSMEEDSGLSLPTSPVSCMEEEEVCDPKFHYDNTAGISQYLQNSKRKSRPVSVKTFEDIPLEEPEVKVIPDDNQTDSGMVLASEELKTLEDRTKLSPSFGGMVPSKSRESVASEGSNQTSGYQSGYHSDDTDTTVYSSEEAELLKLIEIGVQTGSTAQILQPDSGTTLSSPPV

[7] = biological target: Sodium-dependent dopamine transporter (Homo sapiens, UniProt Q01959)
Sequence of Sodium-dependent dopamine transporter (Q01959 whole entry): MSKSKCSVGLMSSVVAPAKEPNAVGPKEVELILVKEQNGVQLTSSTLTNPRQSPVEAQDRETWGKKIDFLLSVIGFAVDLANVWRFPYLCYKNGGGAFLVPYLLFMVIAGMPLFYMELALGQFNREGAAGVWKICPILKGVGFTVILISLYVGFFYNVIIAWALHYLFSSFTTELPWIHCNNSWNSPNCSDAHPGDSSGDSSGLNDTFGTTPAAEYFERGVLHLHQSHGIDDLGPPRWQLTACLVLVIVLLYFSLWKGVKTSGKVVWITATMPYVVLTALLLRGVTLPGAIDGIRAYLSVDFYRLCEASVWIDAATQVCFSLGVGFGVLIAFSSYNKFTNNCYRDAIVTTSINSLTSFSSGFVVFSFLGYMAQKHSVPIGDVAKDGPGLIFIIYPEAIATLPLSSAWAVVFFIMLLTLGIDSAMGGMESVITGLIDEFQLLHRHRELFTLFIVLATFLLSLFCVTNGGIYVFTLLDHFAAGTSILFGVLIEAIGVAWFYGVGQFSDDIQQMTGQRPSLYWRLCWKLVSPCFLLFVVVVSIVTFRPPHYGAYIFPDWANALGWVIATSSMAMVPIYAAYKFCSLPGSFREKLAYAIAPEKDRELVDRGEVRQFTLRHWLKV

[8] = biological target: T5, Amine oxidase [flavin-containing] A (Homo sapiens, UniProt P21397); type: functional
T5 sequence (P21397 whole entry): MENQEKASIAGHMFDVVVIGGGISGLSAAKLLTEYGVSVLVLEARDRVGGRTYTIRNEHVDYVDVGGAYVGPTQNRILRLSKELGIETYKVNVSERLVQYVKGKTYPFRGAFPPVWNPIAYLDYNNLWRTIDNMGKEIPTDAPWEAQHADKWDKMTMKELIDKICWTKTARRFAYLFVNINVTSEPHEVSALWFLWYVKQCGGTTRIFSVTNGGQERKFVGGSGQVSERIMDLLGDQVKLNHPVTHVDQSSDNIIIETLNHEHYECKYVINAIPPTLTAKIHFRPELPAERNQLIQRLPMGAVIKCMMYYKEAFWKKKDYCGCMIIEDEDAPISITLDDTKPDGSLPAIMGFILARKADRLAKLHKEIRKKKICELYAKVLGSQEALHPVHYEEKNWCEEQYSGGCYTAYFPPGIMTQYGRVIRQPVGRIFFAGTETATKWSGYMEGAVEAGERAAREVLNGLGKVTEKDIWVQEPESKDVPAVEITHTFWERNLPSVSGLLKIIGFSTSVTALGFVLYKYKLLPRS
Note: assay procedure not described here.

| SMILES | AC50 (Adenosine receptor A3) [µM] | AC50 (Thromboxane A2 receptor [1]) [µM] | AC50 (Thromboxane A2 receptor [2]) [µM] | AC50 [3] [µM] | AC50 [4] [µM] | AC50 [5] [µM] | AC50 [6] [µM] | AC50 [7] [µM] | AC50 [8] [µM] |
| --- | --- | --- | --- | --- | --- | --- | --- | --- | --- |
| Nc1ccncc1N [AMIFAMPRIDINE] | > 30 | > 30 | > 30 | > 30 | > 30 | > 30 | > 30 | > 30 | > 30 |
| CN1CCN(C2=Nc3ccccc3Sc3ccc(Cl)cc32)CC1 [CLOTHIAPINE] | – | > 10 | > 10 | 0.52 | 12.1 | 0.76 | – | 3.62 | > 30 |
| Cc1cc(OP(=O)(O)O)c2ccccc2c1OP(=O)(O)O [MENADIOL SODIUM DIPHOSPHATE] | > 30 | > 30 | > 30 | > 30 | > 30 | > 30 | > 30 | > 30 | > 30 |
| CCN1CCCC1CNC(=O)c1cc(S(N)(=O)=O)ccc1OC (stereo not drawn) [SULPIRIDE] | > 30 | > 30 | > 30 | > 30 | > 30 | > 30 | > 30 | > 30 | > 30 |
| OC[C@@H](O)[C@H](O)[C@@H](O)CO [XYLITOL] | > 30 | > 30 | > 30 | > 30 | > 30 | > 30 | > 30 | > 30 | > 30 |
| CC(=O)Oc1ccc2c(c1)CC[C@@H]1[C@@H]2CC[C@]2(C)[C@@H](O)CC[C@@H]12 [ESTRADIOL ACETATE] | 10.5 | > 30 | 13.1 | > 30 | > 30 | > 30 | > 30 | 8.09 | > 30 |
| NC1=NCC2c3ccccc3Cc3ccccc3N12 (stereo not drawn) [EPINASTINE] | > 30 | > 30 | > 30 | > 30 | 1.28 | 4.58 | > 30 | > 30 | > 30 |
| CCCC1O[C@@H]2C[C@H]3[C@@H]4CCC5=CC(=O)C=C[C@]5(C)[C@H]4[C@@H](O)C[C@]3(C)[C@]2(C(=O)CO)O1 (stereo partly drawn) [BUDESONIDE] | > 30 | > 30 | > 30 | > 30 | > 30 | > 30 | > 30 | > 30 | > 30 |
| COc1ccccc1N1CCN(CC(O)COc2cccc3ccccc23)CC1 (stereo not drawn) [NAFTOPIDIL] | – | > 30 | > 3 | > 30 | 0.0086 | 6.01 | – | 4.46 | > 30 |
| Cc1cc(C)c(NC(=O)CN(CC(=O)O)CC(=O)O)c(C)c1Br [MEBROFENIN] | – | > 30 | > 30 | > 30 | > 30 | > 30 | – | > 30 | > 30 |
| CC[C@H]1CN2CCc3cc(OC)c(OC)cc3[C@@H]2C[C@@H]1C[C@H]1NCCc2cc(OC)c(OC)cc21 [EMETINE] | – | > 30 | > 30 | > 30 | 22.7 | > 30 | – | > 30 | > 30 |
| O=c1[nH]c(=O)n(C2CCCO2)cc1F (stereo not drawn) [TEGAFUR] | > 30 | > 30 | > 30 | > 30 | > 30 | > 30 | > 30 | > 30 | > 30 |
| NC(=O)C[C@H](N)C(=O)O [ASPARAGINE] | > 30 | > 30 | > 30 | > 30 | > 30 | > 30 | > 30 | > 30 | > 30 |
| CCCCCNC(=N)N/N=C/c1c[nH]c2ccc(OC)cc12 [TEGASEROD] | – | > 3 | > 3 | 6.59 | 0.04 | 0.26 | – | 1.85 | 23.6 |
| C[S+](CC[C@H](N)C(=O)[O-])C[C@H]1O[C@@H](n2cnc3c(N)ncnc32)[C@H](O)[C@@H]1O (stereo partly drawn) [ADEMETIONINE] | 0.174 | > 30 | > 30 | > 30 | > 30 | > 30 | 19.4 | > 30 | > 30 |
| O=C(O)c1ccccc1C(=O)Nc1ccc(S(=O)(=O)Nc2nccs2)cc1 [PHTHALYLSULFATHIAZOLE] | > 30 | > 30 | > 30 | > 30 | > 10 | > 30 | > 30 | > 30 | > 30 |
| CCOC(=O)[C@H](CCc1ccccc1)N[C@@H](C)C(=O)N1CC2(C[C@H]1C(=O)O)SCCS2 | > 30 | > 30 | > 30 | > 30 | > 30 | > 30 | > 10 | > 30 | > 30 |
| Nc1ccc2cc3ccc(N)cc3nc2c1 [PROFLAVINE] | 10.2 | > 0.3 | – | 2.61 | 17.2 | 2.69 | 25.8 | 5.16 | 0.786 |
| Cc1ccccc1OCC(O)CO (stereo not drawn) [MEPHENESIN] | > 30 | > 30 | > 30 | > 30 | > 30 | > 30 | > 30 | > 30 | > 30 |
| O=c1[nH]c(=O)n([C@H]2C[C@H](O)[C@@H](CO)O2)cc1I [IDOXURIDINE] | > 30 | > 30 | > 30 | > 30 | > 30 | > 30 | > 30 | > 30 | > 30 |
| COc1cc2c3cc1Oc1cc(ccc1O)C[C@@H]1c4c(cc(OC)c(O)c4Oc4ccc(cc4)C[C@@H]3N(C)CC2)CC[N+]1(C)C [TUBOCURARINE] | > 30 | > 30 | > 30 | > 30 | > 30 | > 30 | > 30 | > 30 | > 30 |
